Values of other authors as cited in US7943666B2, “Esters of capsaicin for treating pain” (Trinity Laboratories, Inc., priority 2006, dated 2011).

Assays:
[1] = 540 mg per day orally for 30 days plus topical as needed; arthritis not responding to NSAIDs
[2] = rats, i.v. administration

Row | Structure (SMILES) | Individuals improved [1] [%] | Time to distribution to brain, spinal cord, liver and blood [2] [min]
1 | CCCC/C=C\CCCCCCCC(=O)OCCCCCCCCCCCCCCCC [cetyl myristoleate, cis-9-cetyl myristoleate] | 63.5 | 
2 | COc1cc(CNC(=O)CCCCC=CC(C)C)ccc1O [capsaicin, 8-methyl-N-vanillyl-6-nonenamide] |  | ≤ 20
